From paper PMC11860776 (Viruses, 2025)
Entries after “also recorded” stand apart in the source; their conditions may differ. Read-outs that look alike come from different tables or passages of the source.

How the values were obtained:
[1] = test system: B19V; design: method as in earlier work; conditions: UT7/EpoS1 cells, IVM at 10 μM; cited from earlier work
[2] = target: T1, mIMPα2ΔIBB:NS1 NLS interaction (Mus musculus, UniProt P52293); assay: AlphaScreen inhibition assay of the IMPα:NS1-NLS interaction; format: binding
T1 construct: made in house; host or cells: bacteria

[3] = test system: B19V; assay: Antiviral assay: B19V DNA replication by qPCR in UT7/EpoS1 cells; format: cell-based, Human parvovirus B19; conditions: for EC50: B19V DNA 48 hpi vs 2 hpi, table: mean (95% CI); for inhibition of viral replication: compounds at 10 μM, 48 hpi vs 2 hpi
[4] = test system: B19V; assay: Antiviral assay: B19V DNA replication by qPCR in EPCs; format: cell-based, Human parvovirus B19; conditions: B19V DNA 48 hpi vs 2 hpi, table: mean (95% CI)
[5] = test system: EPCs; assay: Cell cytotoxicity assay (WST-8, CCK-8) in EPCs; format: cell-based, human; conditions: for CC50: WST-8 based assay, TLTM: too low to measure; for cell toxicity: every concentration tested
[6] = test system: UT7/EpoS1 cells; assay: Cell cytotoxicity assay (alamarBlue HS) in UT7/EpoS1 cells; format: cell-based; conditions: for CC50: 6 h + 48 h with compound, alamarBlue, table: mean (95% CI)
[7] = titration 0-5 μM, average ± SD, 4 independent experiments, read-out: IC50

| Compound | IC50 [2, 7] | EC50 [3] | inhibition of viral replication [3] | CC50 [6] | other results |
| --- | --- | --- | --- | --- | --- |
| CC[C@H](C)[C@H]1O[C@]2(CC[C@@H]1C)C[C@@H]1C[C@@H](C/C=C(\C)[C@@H](O[C@H]3C[C@H](OC)[C@@H](O[C@H]4C[C@H](OC)[C@@H](O)[C@H](C)O4)[C@H](C)O3)[C@@H](C)/C=C/C=C3\CO[C@@H]4[C@H](O)C(C)=C[C@@H](C(=O)O1)[C@]34O)O2 [IVM, Ivermectin] | 0.0118 ± 0.004 µM | 7.6 µM | inhibited viral replication | 14.5 µM | inhibition of B19V viral replication [1]: could inhibit B19V viral replication; AlphaScreen counts (mIMPα2ΔIBB:NS1 NLS interaction) ([2]; IVM 10 μM (text; figure legend says 2.5 μM) vs absence): significant reduction; concentration from which strong inhibition of B19V DNA replication starts [3]: ≥ 6 µM; EC50 [4]: 3.3 µM; CC50 [5]: TLTM; cell toxicity [5]: extremely toxic at every concentration tested; concentrations causing significative toxicity [6]: above 12.5 μM |
| CC(Nc1nc(N2CCCC2)nc2ccccc12)c1ccccc1 (stereo not shown) [Importazole] |  | 13.4 µM | inhibited viral replication; also recorded: inhibited viral replication more than IVM | 30 µM |  |
| CO/N=C1\C[C@]2(C[C@@H]3C[C@@H](C/C=C(\C)C[C@@H](C)/C=C/C=C4\CO[C@@H]5[C@H](O)C(C)=C[C@@H](C(=O)O3)[C@]45O)O2)O[C@H](/C(C)=C/C(C)C)[C@H]1C [Moxidectin] | 0.0157 ± 0.0012 µM |  |  |  |  |
| CO[C@H]1C[C@H](O[C@@H]2/C(C)=C/C[C@@H]3C[C@@H](C[C@]4(CC[C@H](C)[C@@H](C5CCCCC5)O4)O3)OC(=O)[C@@H]3C=C(C)/C(=N/O)[C@H]4OC/C(=C\C=C\[C@@H]2C)[C@]43O)O[C@@H](C)[C@@H]1O [Selamectin] |  |  |  |  | IC50 [2]: 0.0508 ± 0.0029 µM |
| Avermectin B1 | 0.0361 ± 0.0177 µM | 9.8 µM | inhibited viral replication more than IVM |  |  |
| Emamectin benzoate [Emamectin benozate] | 0.0099 ± 0.003 µM |  |  |  |  |
| Eprinomectin | 0.0409 ± 0.0099 µM | 3.2 µM | inhibited viral replication more than IVM | 15.9 µM | EC50 [4]: 6.5 µM; CC50 [5]: TLTM; cell toxicity [5]: extremely toxic at every concentration tested |
| Milbemycin oxime | 0.0269 ± 0.0159 µM |  |  |  |  |
